“And” between values parts separate entries of the source, which are not always exact repeats. Identical values can stand only once.
Biological target: crude AD brain extracts (tau seeds) in HEK293T tau biosensor cells (Homo sapiens, UniProt P10636)
Assay: Tau biosensor cell seeding assay, screen with crude AD brain extracts
Format: cell-based
Conditions: 10 μM inhibitor on cells, seeds pre-incubated 16–18 h at 4 °C, individual replicates (n=3), DMSO control 10734.9/12808.5/11145.3
Source text: From the in silico screen, compounds were ranked and 46 were selected for further experimental validation based on the total binding energy of the ligand/fibril complex. The experimental assessment consisted of direct measures of fibril disassembly (Fig. 2d, e and Supplementary Table 3) and assessment of the seeding capability of the products of disassembled AD tau fibrils in a biosensor cell assay. Disaggregating molecules that produce active seeds are undesirable for therapy and are excluded from further study. HEK293T cells expressing CFP- or YFP-fused tau are transduced with exogenous AD tau fibrils. Externally applied AD-tau fibrils then induce the aggregation of the endogenous fluorescent tau, resulting in the formation of FRET-positive intracellular aggregates, visible as bright puncta by fluorescence microscopy (Fig. 2f). Automated image analysis of visible puncta provides an objective quantification of seeded aggregation. […] Although biosensors may be limited in reporting structural characteristics of fibril progeny, they offer exquisitely sensitive measures of tau seeding activity—the ability for fibrils to recruit monomeric protein into fibrillar form, which is thought to be the mechanism for tau spreading in AD.
Human autopsy samples were obtained by the Mayo Clinic Brain Bank and UCLA Pathology Department according to HHS regulations from patients consenting to autopsy. Samples were provided to the researchers of this study as anonymized tissues. For purification of paired helical filaments (PHFs) and straight filaments (SFs) from AD brain tissue, extractions were performed according to the previously published protocol without any modifications. […] For biosensor seeding assays with crude AD brain extracts, fresh-frozen tissue from neuropathologically confirmed AD cases was thawed and cut into a 0.2–0.3 g sections. Tissue was manually homogenized in a 15 ml disposable tube in 1 ml of 50 mM Tris, pH 7.4 with 150 mM NaCl, and then aliquoted to PCR tubes and sonicated in a cuphorn bath for 120 min under 30% power at 4 °C in a recirculating ice water bath, according to reference.
HEK293T cell lines stably expressing tau-K18 P301S-eYFP were obtained from Marc Diamond[25] and used without further characterization or authentication. […] Inhibitors were dissolved in DMSO. […] After twenty minutes, 10 µl of fibrils were added to 90 µl of tau biosensor cells. The number of seeded aggregates was determined by imaging the entire well of a 96-well plate in triplicate using a Celigo Image Cytometer (Nexcelom) in the YFP channel. The number of aggregates in a given image was determined using an ImageJ 2.3.0[50] script, which subtracts the background fluorescence from unseeded cells, and then counts the number of aggregates as peaks with fluorescence above the background using the built-in Particle Analyzer. The number of aggregates was normalized to the confluence of each well, and dose-response plots were generated by calculating the average and standard deviations from triplicate measurements.

Chain of crude AD brain extracts (tau seeds) in HEK293T tau biosensor cells (P10636 623-695 limits assumed): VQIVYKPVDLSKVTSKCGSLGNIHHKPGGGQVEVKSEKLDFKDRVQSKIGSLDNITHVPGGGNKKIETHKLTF

## CC1=NN(c2ccc(C)c(C)c2)C(=O)/C1=N\Nc1cccc(-c2cccc(C(=O)O)c2)c1O [FDA-A-15, Eltrombopag]
  Number of seeded aggregates in tau biosensor cells (normalized to confluence), Fig. 2e: 3758.35 and 8279.6 and 8614.09

## CN(C)CCCN1c2ccccc2CCc2ccccc21 [FDA-R-24, Imipramine]
  Number of seeded aggregates in tau biosensor cells (normalized to confluence), Fig. 2e: 13643.9

## C[C@@H]1C/C=C/C=C/C=C/C=C/[C@H](O[C@@H]2O[C@H](C)[C@@H](O)[C@H](N)[C@@H]2O)C[C@@H]2O[C@](O)(C[C@@H](O)C[C@H]3O[C@@H]3/C=C/C(=O)O1)C[C@H](O)[C@H]2C(=O)O [FDA-R-19, Natamycin]
  Number of seeded aggregates in tau biosensor cells (normalized to confluence), Fig. 2e: 9211.55 and 6199.61 and 13007.3

## CNS(=O)(=O)CCc1ccc2[nH]cc(C3CCN(C)CC3)c2c1 [FDA-R-4, Naratriptan]
  Number of seeded aggregates in tau biosensor cells (normalized to confluence), Fig. 2e: 8578.9 and 6012.3 and 15427

## C/C=C(/C)C(=O)O[C@H]1C(C)=C[C@]23C(=O)[C@@H](C=C(CO)[C@@H](O)[C@]12O)[C@H]1[C@@H](C[C@H]3C)C1(C)C [FDA-A-13, Ingenol mebutate]
Listed as ingenol-3-angelate
  Number of seeded aggregates in tau biosensor cells (normalized to confluence), Fig. 2e: 10027.6 and 8367.28 and 13011.7

## CN1C[C@H](C(=O)N[C@]2(C)O[C@@]3(O)[C@@H]4CCCN4C(=O)[C@H](Cc4ccccc4)N3C2=O)C[C@@H]2c3cccc4[nH]cc(c34)C[C@H]21 [FDA-A-23, Dihydroergotamine]
Listed as dihydroergotamine mesylate
  Number of seeded aggregates in tau biosensor cells (normalized to confluence), Fig. 2e: 6873.71 and 6659.65 and 11949.1

## Cc1ccc(N2C(=O)CC(n3cnc4ccccc43)C2=O)c(C)c1 (stereo not shown) [CNS-22, 3-(1H-benzimidazol-1-yl)-1-(2,4-dimethylphenyl)-2,5-pyrrolidinedione]
Listed as 7729218
  Number of seeded aggregates in tau biosensor cells (normalized to confluence), Fig. 2e: 7077.98 and 8551.58 and 10715.2

## CNC(=C[N+](=O)[O-])NCCSCc1csc(CN(C)C)n1 [FDA-R-7, Nizatidine]
  Number of seeded aggregates in tau biosensor cells (normalized to confluence), Fig. 2e: 6548.12 and 9220.9 and 15017.2

## CO[C@H]1C[C@@H]2CC[C@@H](C)[C@@](O)(O2)C(=O)C(=O)N2CCCC[C@H]2C(=O)O[C@H]([C@H](C)C[C@@H]2CC[C@@H](OCCO)[C@H](OC)C2)CC(=O)[C@H](C)/C=C(\C)[C@@H](O)[C@@H](OC)C(=O)[C@H](C)C[C@H](C)/C=C/C=C/C=C/1C [FDA-A-7, Everolimus]
  Number of seeded aggregates in tau biosensor cells (normalized to confluence), Fig. 2e: 3758.68 and 4378.2 and 11639.6

## CC(=O)c1ccc(S(=O)(=O)NC(=O)NC2CCCCC2)cc1 [FDA-R-8, Acetohexamide]
Listed as acetohexamide aka Dymelor
  Number of seeded aggregates in tau biosensor cells (normalized to confluence), Fig. 2e: 9289.39 and 6525.19 and 13238.7

## CC1=C(C/C=C(\C)CCC[C@H](C)CCC[C@H](C)CCCC(C)C)C(=O)c2ccccc2C1=O [FDA-R-9, Phytonadione]
  Number of seeded aggregates in tau biosensor cells (normalized to confluence), Fig. 2e: 7414.6 and 8137.54 and 11548.1

## CCCCCCCCCC(=O)OCCN1CCN(CCCN2c3ccccc3Sc3ccc(C(F)(F)F)cc32)CC1 [FDA-R-15, Prolixin decanoate]
Listed as Prolixin decanoate aka fluphenazine
  Number of seeded aggregates in tau biosensor cells (normalized to confluence), Fig. 2e: 15859.2 and 19243.3 and 27665.8

## Cc1ccc(S(=O)(=O)N(C(F)F)C(C)(C)C)cc1 [CNS-9, N-(tert-butyl)-N-(difluoromethyl)-4-methylbenzenesulfonamide]
Listed as 6933498
  Number of seeded aggregates in tau biosensor cells (normalized to confluence), Fig. 2e: 6268.06 and 9513.63 and 13394.2

## CC(C)OC(=O)CCC/C=C\C[C@@H]1[C@@H](/C=C/[C@@H](O)COc2cccc(C(F)(F)F)c2)[C@H](O)C[C@@H]1O [FDA-R-18, Travoprost]
  Number of seeded aggregates in tau biosensor cells (normalized to confluence), Fig. 2e: 5152.95 and 6033.26 and 10826.5

## CC(=O)Nc1cc(-c2nn(C)c(=O)c3ccccc23)ccc1N1CCCCC1 [CNS-19, N-[5-(3-methyl-4-oxo-3,4-dihydro-1-phthalazinyl)-2-(1-piperidinyl)phenyl]acetamide]
Listed as 7520752
  Number of seeded aggregates in tau biosensor cells (normalized to confluence), Fig. 2e: 9057.73 and 5534.89 and 16287.3

## CC1=C(C(=O)Nc2cccc(C)n2)C(c2ccccc2C)C2=C(CCCC2=O)N1 (stereo not shown) [CNS-6, 2-methyl-4-(2-methylphenyl)-N-(6-methyl-2-pyridinyl)-5-oxo-1,4,5,6,7,8-hexahydro-3-quinolinecarboxamide]
Listed as 6343767
  Number of seeded aggregates in tau biosensor cells (normalized to confluence), Fig. 2e: 6727.54 and 6497.71 and 11400

## Cc1cccc(-c2noc(-c3ccccc3C(=O)NCc3cccnc3)n2)c1 [CNS-24, 2-[3-(3-methylphenyl)-1,2,4-oxadiazol-5-yl]-N-(3-pyridinylmethyl)benzamide]
Listed as 9002758
  Number of seeded aggregates in tau biosensor cells (normalized to confluence), Fig. 2e: 4798.71 and 2194.24 and 9734.93

## CCC(NC(C)C)C(O)c1ccc(O)c(O)c1 (stereo not shown) [FDA-R-14, Isoetharine]
Listed as Isoetharine mesylate
  Number of seeded aggregates in tau biosensor cells (normalized to confluence), Fig. 2e: 7986.42 and 10421.3 and 17350.6

## CC1=C(C(=O)Nc2ccccn2)C(c2ccc(F)cc2)C2=C(CCCC2=O)N1 (stereo not shown) [CNS-4, 4-(4-fluorophenyl)-2-methyl-5-oxo-N-2-pyridinyl-1,4,5,6,7,8-hexahydro-3-quinolinecarboxamide]
Listed as 6317572
  Number of seeded aggregates in tau biosensor cells (normalized to confluence), Fig. 2e: 8103.61 and 7551.45 and 17671.3

## COc1cccc(C2C(C(=O)Nc3ccccn3)=C(C)NC3=C2C(=O)CCC3)c1 (stereo not shown) [CNS-5, 4-(3-methoxyphenyl)-2-methyl-5-oxo-N-2-pyridinyl-1,4,5,6,7,8-hexahydro-3-quinolinecarboxamide]
Listed as 6327117
  Number of seeded aggregates in tau biosensor cells (normalized to confluence), Fig. 2e: 5790.63 and 5091.84 and 10386.8

## O=C(c1cc2cc(Br)ccc2oc1=O)N1CCc2ccccc2C1 [CNS-10, 6-bromo-3-(3,4-dihydro-2(1H)-isoquinolinylcarbonyl)-2H-chromen-2-one]
Listed as 6991358
  Number of seeded aggregates in tau biosensor cells (normalized to confluence), Fig. 2e: 4869.84 and 6105.12 and 9256.09

## O=[N+]([O-])O[C@@H]1CO[C@H]2[C@@H]1OC[C@@H]2O [FDA-R-17, Isosorbide Mononitrate]
Listed as isosorbide mononitrate mw
  Number of seeded aggregates in tau biosensor cells (normalized to confluence), Fig. 2e: 7858.85 and 13647.5 and 18697.1

## Cc1ccc(-n2nccn2)c(C(=O)N2CCN(c3nc4cc(Cl)ccc4o3)CC[C@H]2C)c1 [FDA-A-20, Suvorexant]
  Number of seeded aggregates in tau biosensor cells (normalized to confluence), Fig. 2e: 10609.4 and 12014.6 and 14701.5

## C[C@]12C=CC(=O)N[C@@H]1CC[C@@H]1[C@@H]2CC[C@]2(C)[C@@H](C(=O)Nc3cc(C(F)(F)F)ccc3C(F)(F)F)CC[C@@H]12 [FDA-A-9, Dutasteride]
  Number of seeded aggregates in tau biosensor cells (normalized to confluence), Fig. 2e: 6197.61 and 4567.33 and 9824.67

## N#Cc1c2c(n3cc4ccccc4cc13)C(=O)c1ccccc1C2=O [CNS-20, 5,14-dioxo-5,14-dihydrobenzo[5,6]indolo[1,2-b]isoquinoline-13-carbonitrile]
Listed as 7663820
  Number of seeded aggregates in tau biosensor cells (normalized to confluence), Fig. 2e: 40070.2 and 48758.2 and 61897.7

From PMC9481533, “Structure-based discovery of small molecules that disaggregate Alzheimer’s disease tissue derived tau fibrils in vitro” (Nature Communications, 2022)
